Source: US11981658B2, “Substituted aminopyridine compounds as EGFR inhibitors” (YUHAN CORPORATION, priority 2021, dated 2024)
Read-outs that look alike come from different tables or passages of the source.

Tests used:
EGFR Del19/T790M/C797S = EGFR Del19/T790M/C797S (Homo sapiens, UniProt P00533, C797S/DEL746-750/T790M); assay: Biochemical EGFR kinase inhibition assay (Lance Ultra TR-FRET), triple mutant del19/T790M/C797S
How it was run: (§1)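 Enzyme reactions lasted 1 hour at room temperature with test compounds between 0.003 and 10 μM, followed by 10 mM EDTA quench.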

EGFR Del19/C797S = EGFR Del19/C797S (Homo sapiens, UniProt P00533, C797S/DEL746-750); assay: Biochemical EGFR kinase inhibition assay (Lance Ultra TR-FRET), double mutant del19/C797S
How it was run: as §1

EGFR wildtype (WT) = EGFR wildtype (WT) (Homo sapiens, UniProt P00533); assay: Biochemical EGFR kinase inhibition assay (Lance Ultra TR-FRET), wildtype
How it was run: as §1

EGFR L858R/T790M/C797S = EGFR L858R/T790M/C797S (Homo sapiens, UniProt P00533, C797S/L858R/T790M); assay: Biochemical EGFR kinase inhibition assay (Lance Ultra TR-FRET), triple mutant L858R/T790M/C797S
How it was run: as §1

EGFR L858R/C797S = EGFR L858R/C797S (Homo sapiens, UniProt P00533, C797S/L858R); assay: Biochemical EGFR kinase inhibition assay (Lance Ultra TR-FRET), double mutant L858R/C797S
How it was run: as §1

[1] = IC50 Del19/T790M/C797S (nM), 100 μM ATP
[2] = Km ATP, read-out: IC50 Del19/T790M/C797S (nM), Km ATP
[3] = IC50 Del19/C797S (nM), 100 μM ATP
[4] = Km ATP, read-out: IC50 Del19/C797S (nM), Km ATP
[5] = Km ATP, read-out: IC50 WT (nM), Km ATP
[6] = IC50 L858R/T790M/C797S (nM), 100 μM ATP
[7] = Km ATP, read-out: IC50 L858R/T790M/C797S (nM), Km ATP
[8] = IC50 L858R/C797S (nM), 100 μM ATP
[9] = Km ATP, read-out: IC50 L858R/C797S (nM), Km ATP

Sequence of EGFR Del19/C797S (P00533 with tags, fused parts or gaps DEL746-750/C797S): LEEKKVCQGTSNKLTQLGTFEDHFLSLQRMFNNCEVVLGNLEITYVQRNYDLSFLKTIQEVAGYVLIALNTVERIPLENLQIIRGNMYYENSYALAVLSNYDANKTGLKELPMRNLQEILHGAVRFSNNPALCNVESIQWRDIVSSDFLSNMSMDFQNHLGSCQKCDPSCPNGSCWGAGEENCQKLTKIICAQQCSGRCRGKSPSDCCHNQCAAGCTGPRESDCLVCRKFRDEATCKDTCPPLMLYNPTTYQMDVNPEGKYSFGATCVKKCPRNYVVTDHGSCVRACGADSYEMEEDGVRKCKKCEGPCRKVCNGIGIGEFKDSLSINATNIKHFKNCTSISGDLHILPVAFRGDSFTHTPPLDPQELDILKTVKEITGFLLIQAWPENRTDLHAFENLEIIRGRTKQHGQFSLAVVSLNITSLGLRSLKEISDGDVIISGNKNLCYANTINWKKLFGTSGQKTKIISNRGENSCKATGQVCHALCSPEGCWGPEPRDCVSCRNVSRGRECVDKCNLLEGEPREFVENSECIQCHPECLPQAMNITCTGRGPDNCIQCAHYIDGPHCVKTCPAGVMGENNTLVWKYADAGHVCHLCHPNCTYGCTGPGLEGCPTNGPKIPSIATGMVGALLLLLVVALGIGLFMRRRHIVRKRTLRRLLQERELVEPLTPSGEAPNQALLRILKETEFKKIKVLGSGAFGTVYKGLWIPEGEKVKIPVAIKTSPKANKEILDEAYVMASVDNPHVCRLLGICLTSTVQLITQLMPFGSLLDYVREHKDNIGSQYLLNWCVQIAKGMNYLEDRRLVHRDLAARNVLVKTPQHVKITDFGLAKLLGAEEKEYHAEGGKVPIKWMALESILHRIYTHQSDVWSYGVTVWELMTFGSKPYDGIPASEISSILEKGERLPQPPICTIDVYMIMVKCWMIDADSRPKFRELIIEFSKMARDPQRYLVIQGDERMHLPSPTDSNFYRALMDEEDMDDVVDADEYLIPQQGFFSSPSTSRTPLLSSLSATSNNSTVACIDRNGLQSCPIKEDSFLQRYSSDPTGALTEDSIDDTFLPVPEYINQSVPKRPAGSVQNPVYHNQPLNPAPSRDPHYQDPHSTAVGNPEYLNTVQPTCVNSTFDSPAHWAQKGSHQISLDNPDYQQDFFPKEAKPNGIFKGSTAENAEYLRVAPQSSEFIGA
Sequence of EGFR Del19/T790M/C797S (P00533 with tags, fused parts or gaps DEL746-750/T790M/C797S): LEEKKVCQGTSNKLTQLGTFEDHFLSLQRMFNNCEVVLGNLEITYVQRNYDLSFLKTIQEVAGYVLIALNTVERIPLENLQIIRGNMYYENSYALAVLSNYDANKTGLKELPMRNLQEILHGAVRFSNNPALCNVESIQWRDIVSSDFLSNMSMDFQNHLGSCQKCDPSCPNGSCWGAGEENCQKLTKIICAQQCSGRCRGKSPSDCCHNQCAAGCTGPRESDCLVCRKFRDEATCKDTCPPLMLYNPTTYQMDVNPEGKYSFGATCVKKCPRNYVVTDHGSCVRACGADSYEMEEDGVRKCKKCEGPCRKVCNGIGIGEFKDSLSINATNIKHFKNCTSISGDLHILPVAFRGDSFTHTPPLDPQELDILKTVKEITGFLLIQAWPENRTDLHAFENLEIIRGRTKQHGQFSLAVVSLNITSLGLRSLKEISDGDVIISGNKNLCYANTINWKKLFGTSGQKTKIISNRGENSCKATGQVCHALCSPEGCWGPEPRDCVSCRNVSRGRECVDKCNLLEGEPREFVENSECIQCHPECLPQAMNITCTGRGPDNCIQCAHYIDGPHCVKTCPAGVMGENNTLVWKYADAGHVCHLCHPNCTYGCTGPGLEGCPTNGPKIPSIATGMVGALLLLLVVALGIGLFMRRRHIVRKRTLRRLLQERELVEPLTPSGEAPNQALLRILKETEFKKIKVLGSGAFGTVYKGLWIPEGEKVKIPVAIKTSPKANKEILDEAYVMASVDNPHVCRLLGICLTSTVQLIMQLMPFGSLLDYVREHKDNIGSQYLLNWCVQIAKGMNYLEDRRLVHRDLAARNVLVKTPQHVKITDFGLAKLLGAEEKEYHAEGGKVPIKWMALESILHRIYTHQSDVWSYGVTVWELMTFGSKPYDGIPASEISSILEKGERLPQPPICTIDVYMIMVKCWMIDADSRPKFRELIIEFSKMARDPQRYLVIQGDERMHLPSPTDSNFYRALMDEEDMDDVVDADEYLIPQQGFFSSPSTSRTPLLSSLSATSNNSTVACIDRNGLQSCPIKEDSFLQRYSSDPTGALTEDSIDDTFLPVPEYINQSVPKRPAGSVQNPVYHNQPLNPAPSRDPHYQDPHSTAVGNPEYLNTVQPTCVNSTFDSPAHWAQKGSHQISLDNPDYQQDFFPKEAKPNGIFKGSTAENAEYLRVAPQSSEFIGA
Sequence of EGFR L858R/T790M/C797S (P00533 25-1210 T790M/C797S/L858R): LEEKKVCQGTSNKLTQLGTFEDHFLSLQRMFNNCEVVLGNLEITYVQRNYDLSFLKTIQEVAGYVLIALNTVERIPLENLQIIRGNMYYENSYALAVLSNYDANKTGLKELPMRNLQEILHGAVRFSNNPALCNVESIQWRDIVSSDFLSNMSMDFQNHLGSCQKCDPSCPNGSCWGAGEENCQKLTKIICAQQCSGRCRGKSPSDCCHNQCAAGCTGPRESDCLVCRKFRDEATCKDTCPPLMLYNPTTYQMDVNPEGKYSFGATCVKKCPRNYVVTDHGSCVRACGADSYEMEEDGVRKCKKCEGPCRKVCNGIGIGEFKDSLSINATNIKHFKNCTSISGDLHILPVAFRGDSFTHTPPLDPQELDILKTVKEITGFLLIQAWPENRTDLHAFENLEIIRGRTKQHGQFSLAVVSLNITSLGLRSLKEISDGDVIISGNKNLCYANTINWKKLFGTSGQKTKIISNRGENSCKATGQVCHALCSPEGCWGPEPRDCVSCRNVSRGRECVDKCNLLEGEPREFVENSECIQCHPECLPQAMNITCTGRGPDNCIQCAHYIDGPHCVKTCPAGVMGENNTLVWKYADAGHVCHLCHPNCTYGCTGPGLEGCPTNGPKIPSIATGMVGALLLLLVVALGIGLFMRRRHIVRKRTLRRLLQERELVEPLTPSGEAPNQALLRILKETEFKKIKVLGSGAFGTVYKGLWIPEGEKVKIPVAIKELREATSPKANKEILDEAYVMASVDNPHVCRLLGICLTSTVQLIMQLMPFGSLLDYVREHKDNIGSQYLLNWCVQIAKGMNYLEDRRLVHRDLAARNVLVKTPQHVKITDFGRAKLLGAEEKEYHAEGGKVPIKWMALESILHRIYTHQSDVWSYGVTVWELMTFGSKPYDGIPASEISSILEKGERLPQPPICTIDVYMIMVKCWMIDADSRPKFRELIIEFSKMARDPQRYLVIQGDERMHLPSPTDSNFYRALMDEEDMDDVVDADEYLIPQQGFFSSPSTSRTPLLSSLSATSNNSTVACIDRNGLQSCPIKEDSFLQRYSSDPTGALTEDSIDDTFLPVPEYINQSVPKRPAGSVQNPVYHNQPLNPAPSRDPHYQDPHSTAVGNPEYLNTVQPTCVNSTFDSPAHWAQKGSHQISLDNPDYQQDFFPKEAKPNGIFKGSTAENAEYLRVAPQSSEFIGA
Sequence of EGFR wildtype (WT) (P00533 25-1210): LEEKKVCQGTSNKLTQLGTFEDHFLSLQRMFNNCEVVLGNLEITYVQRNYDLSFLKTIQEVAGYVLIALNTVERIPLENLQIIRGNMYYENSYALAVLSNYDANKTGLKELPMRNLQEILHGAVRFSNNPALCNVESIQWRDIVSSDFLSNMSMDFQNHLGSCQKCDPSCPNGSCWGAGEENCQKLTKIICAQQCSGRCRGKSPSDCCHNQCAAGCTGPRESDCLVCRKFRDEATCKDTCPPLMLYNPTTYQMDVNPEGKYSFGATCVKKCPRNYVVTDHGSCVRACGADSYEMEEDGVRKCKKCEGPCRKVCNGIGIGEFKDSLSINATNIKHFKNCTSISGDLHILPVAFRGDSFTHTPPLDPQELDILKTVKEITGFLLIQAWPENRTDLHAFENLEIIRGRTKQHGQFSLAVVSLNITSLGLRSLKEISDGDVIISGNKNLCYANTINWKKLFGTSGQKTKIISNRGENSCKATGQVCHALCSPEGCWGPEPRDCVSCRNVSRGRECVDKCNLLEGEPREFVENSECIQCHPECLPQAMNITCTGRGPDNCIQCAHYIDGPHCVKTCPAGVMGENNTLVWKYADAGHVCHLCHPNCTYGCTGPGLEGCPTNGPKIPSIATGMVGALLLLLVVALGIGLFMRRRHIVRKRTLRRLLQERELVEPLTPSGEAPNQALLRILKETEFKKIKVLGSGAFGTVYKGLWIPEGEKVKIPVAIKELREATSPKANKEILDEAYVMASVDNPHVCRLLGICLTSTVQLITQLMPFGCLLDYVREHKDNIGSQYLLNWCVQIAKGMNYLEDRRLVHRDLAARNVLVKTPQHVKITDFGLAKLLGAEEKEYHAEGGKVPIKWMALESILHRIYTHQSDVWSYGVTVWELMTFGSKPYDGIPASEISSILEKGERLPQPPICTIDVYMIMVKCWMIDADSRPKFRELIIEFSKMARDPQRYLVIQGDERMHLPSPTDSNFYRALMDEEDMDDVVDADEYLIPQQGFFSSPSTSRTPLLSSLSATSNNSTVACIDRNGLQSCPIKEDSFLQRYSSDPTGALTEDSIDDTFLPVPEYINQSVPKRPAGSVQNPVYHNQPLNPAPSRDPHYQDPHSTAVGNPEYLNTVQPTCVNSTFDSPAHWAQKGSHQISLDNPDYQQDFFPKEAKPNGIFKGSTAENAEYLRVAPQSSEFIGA

IC50 (EGFR Del19/T790M/C797S; [1]) | IC50 (EGFR Del19/T790M/C797S; [2]) | IC50 (EGFR Del19/C797S; [3]) | IC50 (EGFR Del19/C797S; [4]) | IC50 (EGFR wildtype (WT); IC50 WT (nM), 100 μM ATP) | IC50 (EGFR wildtype (WT); [5]) | IC50 (EGFR L858R/T790M/C797S; [6]) | IC50 (EGFR L858R/T790M/C797S; [7]) | IC50 (EGFR L858R/C797S; [8]) | IC50 (EGFR L858R/C797S; [9]) | SMILES
0.2 nM | 0.2 nM | 0.4 nM | 0.2 nM | 1740 nM | 4.8 nM | 0.2 nM | 0.1 nM | 7.4 nM | 0.5 nM | CC1(CO)CCN(c2cc(Nc3ccnc(-c4cnn(S(=O)(=O)C5CC5)c4)n3)ncc2C#CC2(O)CCOC2)CC1 (centres unmarked) [Example 355, 3-((6-((2-(1-(Cyclopropylsulfonyl)-1H-pyrazol-4-yl)pyrimidin-4-yl)amino)-4-(4-(hydroxymethyl)-4-methylpiperidin-1-yl)pyridin-3-yl)ethynyl)tetrahydrofuran-3-ol]
0.2 nM | 0.2 nM | 0.9 nM | 0.6 nM | 5310 nM | 20.1 nM | 0.3 nM | 0.1 nM | 24.5 nM | 2 nM | O=S(=O)(C1CC1)n1cc(-c2nccc(Nc3cc(NC4CCC(O)CC4)c(C#CC4(O)CCOC4)cn3)n2)cn1 (centres unmarked) [Example 356, 3-((6-((2-(1-(Cyclopropylsulfonyl)-1H-pyrazol-4-yl)pyrimidin-4-yl)amino)-4-(((1 s, 4s)-4-hydroxycyclohexyl)amino)pyridin-3-yl)ethynyl)tetrahydrofuran-3-ol]
0.3 nM | 0.2 nM | 1.5 nM | 1.4 nM | 4710 nM | 9.2 nM | 0.4 nM | 0.1 nM | 14 nM | 1.5 nM | CC1(CO)CCN(c2cc(Nc3ccnc(-c4cnn(S(=O)(=O)C5CC5)c4)n3)ncc2C#CC2(O)CCCOC2)CC1 (centres unmarked) [Example 357, 3-((6-((2-(1-(Cyclopropylsulfonyl)-1H-pyrazol-4-yl)pyrimidin-4-yl)amino)-4-(4-(hydroxymethyl)-4-methylpiperidin-1-yl)pyridin-3-yl)ethynyl)tetrahydro-2H-pyran-3-ol]
1.7 nM | 1.2 nM | 3.7 nM | 1.9 nM | 6280 nM | 22.9 nM | 1.6 nM | 0.7 nM | 30.2 nM | 3.8 nM | CC1(C#Cc2cnc(Nc3ccnc(-c4cnn(S(=O)(=O)C5CC5)c4)n3)cc2N2CCC(C)(CO)CC2)CC1 [Example 358, (1-(2-((2-(1-(Cyclopropylsulfonyl)-1H-pyrazol-4-yl)pyrimidin-4-yl)amino)-5-((1-methylcyclopropyl)ethynyl)pyridin-4-yl)-4-methylpiperidin-4-yl)methanol]
1.6 nM | 0.9 nM | 2.6 nM | 2.2 nM | > 10000 nM | 26.7 nM | 1.5 nM | 0.4 nM | 55.1 nM | 3.6 nM | CC1(C#Cc2cnc(Nc3ccnc(-c4cnn(S(=O)(=O)C5CC5)c4)n3)cc2N[C@H]2CC[C@@H](O)CC2)CC1 [Example 359, (1s,4s)-4-((2-((2-(1-(Cyclopropylsulfonyl)-1H-pyrazol.-4-yl)pyrimidin-4-yl)amino)-5-((1-methylcyclopropyl)ethynyl)pyridin-4-yl)amino)cyclohexan-1-ol]
1.1 nM | 0.8 nM | 2.7 nM | 2.3 nM | 1130 nM | 3.8 nM | 0.9 nM | 0.3 nM | 7.7 nM | 2.5 nM | CN1CCN(Cc2ccc(C#Cc3cnc(Nc4ccnc(-c5cnn(S(=O)(=O)C6CC6)c5)n4)cc3N[C@H]3CC[C@@H](CO)CC3)cc2)CC1 [Example 360, ((1s,4s)-4-((2-((2-(1-(Cyclopropylsulfonyl)-1H-pyrazol-4-yl)pyrimidin-4-yl)amino)-5-((4-((4-methylpiperazin-1-yl)methyl)phenyl)ethynyl)pyridin-4-yl)amino)cyclohexyl)methanol]
0.7 nM | – | 4.3 nM | – | > 10000 nM | – | 1.5 nM | – | 468 nM | – | CN1CCN(Cc2ccc(C#Cc3cnc(Nc4ccnc(-c5cnn(S(=O)(=O)C6CC6)c5)n4)cc3NC[C@H]3CC[C@H](O)CC3)cc2)CC1 [Example 361, (1 r,4r)-4-(((2-((2-(1-(Cyclopropylsulfonyl)-1H-pyrazol-4-yl)pyrimidin-4-yl)amino)-5-((4-((4-methylpiperazin-1-yl)methyl)phenyl)ethynyl)pyridin-4-yl)amino)methyl)cyclohexan-1-ol]
